Measurements reported in patent US10294202B2, “Pyrrolidinones as herbicides” (FMC Corporation, priority 2013, dated 2019).

Key:
[1] = test system: ragweed; assay: Test A pre-/postemergence herbicide test; assay type: in vivo, Ambrosia elatior
In short: (§1)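 Formulated compound (non-phytotoxic solvent, surfactant) sprayed pre- onto soil of seeded loam/sand pots or post- onto seedlings at 1–2 leaves; ~10 d greenhouse; 0–100 visual control rating versus untreated.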

[2] = test system: galium; assay: Test A postemergence herbicide test; assay type: in vivo, Galium aparine
In short: (§2)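 Visual injury rating, 0 (no effect) to 100 (complete control), versus untreated controls ~10 days after treatment. Postemergence spray applied at one- to two-leaf stage, plants 2–10 cm tall, potted in loam soil/sand. Greenhouse-held.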

[3] = test system: giant foxtail; assay: Test A pre-/postemergence herbicide test; assay type: in vivo, Setaria faberii
In short: as §1

[4] = test system: pigweed; assay: Test A pre-/postemergence herbicide test; assay type: in vivo, Amaranthus retroflexus
In short: as §1

[5] = test system: blackgrass; assay: Test A postemergence herbicide test; assay type: in vivo, Alopecurus myosuroides
In short: as §2

[6] = test system: rice; assay: Test B flooded paddy test; assay type: in vivo, Oryza sativa; details: 500 g ai/ha, Flood; scale of 0 to 100 where 0 is no effect and 100 is complete control
In short: (§3)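 Plants grown to 2-leaf stage; pots flooded 3 cm above soil and compound applied directly into paddy water, depth held throughout. Visual rating against untreated controls after 13 to 15 days in greenhouse, 0 (no effect) to 100 (complete control).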

[7] = test system: sedge, umbrella; assay: Test B flooded paddy test; assay type: in vivo, Cyperus difformis; details: 500 g ai/ha, Flood; scale of 0 to 100 where 0 is no effect and 100 is complete control
In short: as §3

[8] = test system: ducksalad; assay: Test B flooded paddy test; assay type: in vivo, Heteranthera limosa; details: 500 g ai/ha, Flood; scale of 0 to 100 where 0 is no effect and 100 is complete control
In short: as §3

[9] = test system: corn; assay: Test A pre-/postemergence herbicide test; assay type: in vivo, Zea mays; details: Postemergence
In short: as §1

[10] = test system: kochia; assay: Test A pre-/postemergence herbicide test; assay type: in vivo, Kochia scoparia
In short: as §1

[11] = test system: barnyardgrass; assay: Test A pre-/postemergence herbicide test; assay type: in vivo, Echinochloa crus-galli
In short: as §1

[12] = test system: ryegrass, Italian; assay: Test A pre-/postemergence herbicide test; assay type: in vivo, Lolium multiflorum
In short: as §1

[13] = test system: wheat; assay: Test A pre-/postemergence herbicide test; assay type: in vivo, Triticum aestivum; details: Postemergence
In short: as §1

[14] = test system: barnyardgrass; assay: Test B flooded paddy test; assay type: in vivo, Echinochloa crus-galli; details: 500 g ai/ha, Flood; scale of 0 to 100 where 0 is no effect and 100 is complete control
In short: as §3

[15] = Postemergence, 125 g ai/ha, visual rating on 0 to 100 scale (0 no effect, 100 complete control), approx. 10 days
[16] = Postemergence, 500 g ai/ha, 0 to 100 scale (0 no effect, 100 complete control)
[17] = Preemergence, 125 g ai/ha, 0 to 100 scale where 0 is no effect and 100 is complete control
[18] = preemergence, 500 g ai/ha, 0 to 100 scale, 0 is no effect and 100 is complete control
[19] = 125 g ai/ha, visual rating on 0 to 100 scale (0 no effect, 100 complete control), approx. 10 days
[20] = 500 g ai/ha, 0 to 100 scale (0 no effect, 100 complete control)
[21] = Preemergence, 500 g ai/ha, visual rating on 0 to 100 scale (0 no effect, 100 complete control)

Question: What does the source list for `O=C1NCC(c2cc3ccccc3s2)C1C(=O)Nc1ccccc1F` (stereo not drawn) [Compound 295]?
Answer: Plant response rating, Ragweed [1, 15]: 0; Plant response rating, Ragweed [1, 16]: 0; Plant response rating, Ragweed [1, 17]: 0; Plant response rating, Ragweed [1, 18]: 0; Plant response rating, Galium [2, 19]: 0; Plant response rating, Galium [2, 20]: 10; Plant response rating, Foxtail, Giant [3, 15]: 0; Plant response rating, Foxtail, Giant [3, 16]: 0; Plant response rating, Foxtail, Giant [3, 17]: 0; Plant response rating, Foxtail, Giant [3, 18]: 20; Plant response rating, Pigweed [4, 15]: 0; Plant response rating, Pigweed [4, 16]: 0; Plant response rating, Pigweed [4, 17]: 0; Plant response rating, Pigweed [4, 18]: 0; Plant response rating, Blackgrass [5, 19]: 0; Plant response rating, Blackgrass [5, 20]: 0; Plant response rating, Rice [6]: 0; Plant response rating, Sedge, Umbrella [7]: 0; Plant response rating, Ducksalad [8]: 40; Plant response rating, Corn [9, 19]: 0; Plant response rating, Corn [9, 20]: 0; Plant response rating, Kochia [10, 15]: 0; Plant response rating, Kochia [10, 16]: 0; Plant response rating, Kochia [10, 17]: 0; Plant response rating, Kochia [10, 18]: 0; Plant response rating, Barnyardgrass [11, 15]: 0; Plant response rating, Barnyardgrass [11, 16]: 50; Plant response rating, Barnyardgrass [11, 17]: 0; Plant response rating, Barnyardgrass [11, 18]: 70; Plant response rating, Ryegrass, Italian [12, 15]: 0; Plant response rating, Ryegrass, Italian [12, 16]: 0; Plant response rating, Ryegrass, Italian [12, 17]: 0; Ryegrass, Italian plant response rating [12, 21]: 0; Plant response rating, Wheat [13, 19]: 0; Plant response rating, Wheat [13, 20]: 0; Plant response rating, Barnyardgrass [14]: 30

Question: Which results are given for `O=C1NCC(c2cc3ccccc3s2)C1C(=O)Nc1cccc(F)c1F` (stereo not drawn) [Compound 296]?
Answer: Plant response rating, Ragweed [1, 15]: 0; Plant response rating, Ragweed [1, 16]: 0; Plant response rating, Ragweed [1, 17]: 0; Plant response rating, Ragweed [1, 18]: 0; Plant response rating, Galium [2, 19]: 0; Plant response rating, Galium [2, 20]: 0; Plant response rating, Foxtail, Giant [3, 15]: 0; Plant response rating, Foxtail, Giant [3, 16]: 0; Plant response rating, Foxtail, Giant [3, 17]: 0; Plant response rating, Foxtail, Giant [3, 18]: 0; Plant response rating, Pigweed [4, 15]: 0; Plant response rating, Pigweed [4, 16]: 0; Plant response rating, Pigweed [4, 17]: 0; Plant response rating, Pigweed [4, 18]: 0; Plant response rating, Blackgrass [5, 19]: 0; Plant response rating, Blackgrass [5, 20]: 0; Plant response rating, Rice [6]: 0; Plant response rating, Sedge, Umbrella [7]: 0; Plant response rating, Ducksalad [8]: 60; Plant response rating, Corn [9, 19]: 0; Plant response rating, Corn [9, 20]: 0; Plant response rating, Kochia [10, 15]: 0; Plant response rating, Kochia [10, 16]: 0; Plant response rating, Kochia [10, 17]: 0; Plant response rating, Kochia [10, 18]: 0; Plant response rating, Barnyardgrass [11, 15]: 0; Plant response rating, Barnyardgrass [11, 16]: 20; Plant response rating, Barnyardgrass [11, 17]: 0; Plant response rating, Barnyardgrass [11, 18]: 0; Plant response rating, Ryegrass, Italian [12, 15]: 0; Plant response rating, Ryegrass, Italian [12, 16]: 0; Plant response rating, Ryegrass, Italian [12, 17]: 0; Ryegrass, Italian plant response rating [12, 21]: 0; Plant response rating, Wheat [13, 19]: 0; Plant response rating, Wheat [13, 20]: 0; Plant response rating, Barnyardgrass [14]: 30

Question: How did the “Plant response rating, Ragweed” value [1, 15] turn out when `O=C1NCC(c2cc3ccccc3s2)C1C(=O)Nc1ccccc1C(F)(F)F` (stereo not drawn) [Compound 297] was run?
Answer: 0

Question: What about the “Plant response rating, Ragweed” value [1, 16] of the same compound?
Answer: 0

Question: What about the “Plant response rating, Ragweed” value [1, 17] of the same compound?
Answer: 0

Question: What about the “Plant response rating, Ragweed” value [1, 18] of the same compound?
Answer: 0

Question: What about the “Plant response rating, Galium” value [2, 19] of the same compound?
Answer: 0

Question: And the “Plant response rating, Galium” value [2, 20]?
Answer: 0

Question: And the “Plant response rating, Foxtail, Giant” value [3, 15]?
Answer: 0

Question: What about the “Plant response rating, Foxtail, Giant” value [3, 16] of the same compound?
Answer: 0

Question: What about the “Plant response rating, Foxtail, Giant” value [3, 17] of the same compound?
Answer: 30

Question: And the “Plant response rating, Foxtail, Giant” value [3, 18]?
Answer: 70

Question: And the “Plant response rating, Pigweed” value [4, 15]?
Answer: 0

Question: What about the “Plant response rating, Pigweed” value [4, 16] of the same compound?
Answer: 0

Question: And the “Plant response rating, Pigweed” value [4, 17]?
Answer: 0

Question: What about the “Plant response rating, Pigweed” value [4, 18] of the same compound?
Answer: 0

Question: What about the “Plant response rating, Blackgrass” value [5, 19] of the same compound?
Answer: 0

Question: And the “Plant response rating, Blackgrass” value [5, 20]?
Answer: 10

Question: And the “Plant response rating, Rice” value [6]?
Answer: 0

Question: And the “Plant response rating, Sedge, Umbrella” value [7]?
Answer: 0

Question: And the “Plant response rating, Ducksalad” value [8]?
Answer: 0

Question: What about the “Plant response rating, Corn” value [9, 19] of the same compound?
Answer: 0

Question: And the “Plant response rating, Corn” value [9, 20]?
Answer: 0

Question: What about the “Plant response rating, Kochia” value [10, 15] of the same compound?
Answer: 0

Question: And the “Plant response rating, Kochia” value [10, 16]?
Answer: 0

Question: And the “Plant response rating, Kochia” value [10, 17]?
Answer: 0

Question: What about the “Plant response rating, Kochia” value [10, 18] of the same compound?
Answer: 0

Question: And the “Plant response rating, Barnyardgrass” value [11, 15]?
Answer: 0

Question: What about the “Plant response rating, Barnyardgrass” value [11, 16] of the same compound?
Answer: 0

Question: What about the “Plant response rating, Barnyardgrass” value [11, 17] of the same compound?
Answer: 0

Question: What about the “Plant response rating, Barnyardgrass” value [11, 18] of the same compound?
Answer: 50

Question: What about the “Plant response rating, Ryegrass, Italian” value [12, 15] of the same compound?
Answer: 0

Question: What about the “Plant response rating, Ryegrass, Italian” value [12, 16] of the same compound?
Answer: 0

Question: And the “Plant response rating, Ryegrass, Italian” value [12, 17]?
Answer: 0

Question: What about the “Ryegrass, Italian plant response rating” value [12, 21] of the same compound?
Answer: 0

Question: And the “Plant response rating, Wheat” value [13, 19]?
Answer: 0

Question: And the “Plant response rating, Wheat” value [13, 20]?
Answer: 0

Question: What about the “Plant response rating, Barnyardgrass” value [14] of the same compound?
Answer: 0

Question: What does the source list for `O=C1NCC(c2cnn(CC(F)(F)F)c2)C1C(=O)Nc1cccc(F)c1F` (stereo not drawn) [Compound 299]?
Answer: Plant response rating, Ragweed [1, 15]: 0; Plant response rating, Ragweed [1, 16]: 0; Plant response rating, Ragweed [1, 17]: 0; Plant response rating, Ragweed [1, 18]: 0; Plant response rating, Galium [2, 19]: 0; Plant response rating, Galium [2, 20]: 0; Plant response rating, Foxtail, Giant [3, 15]: 0; Plant response rating, Foxtail, Giant [3, 16]: 50; Plant response rating, Foxtail, Giant [3, 17]: 50; Plant response rating, Foxtail, Giant [3, 18]: 80; Plant response rating, Pigweed [4, 15]: 0; Plant response rating, Pigweed [4, 16]: 0; Plant response rating, Pigweed [4, 17]: 0; Plant response rating, Pigweed [4, 18]: 0; Plant response rating, Blackgrass [5, 19]: 0; Plant response rating, Blackgrass [5, 20]: 0; Plant response rating, Rice [6]: 0; Plant response rating, Sedge, Umbrella [7]: 0; Plant response rating, Ducksalad [8]: 50; Plant response rating, Corn [9, 19]: 0; Plant response rating, Corn [9, 20]: 0; Plant response rating, Kochia [10, 15]: 0; Plant response rating, Kochia [10, 16]: 0; Plant response rating, Kochia [10, 17]: 0; Plant response rating, Kochia [10, 18]: 0; Plant response rating, Barnyardgrass [11, 15]: 30; Plant response rating, Barnyardgrass [11, 16]: 70; Plant response rating, Barnyardgrass [11, 17]: 10; Plant response rating, Barnyardgrass [11, 18]: 70; Plant response rating, Ryegrass, Italian [12, 15]: 0; Plant response rating, Ryegrass, Italian [12, 16]: 0; Plant response rating, Ryegrass, Italian [12, 17]: 0; Ryegrass, Italian plant response rating [12, 21]: 0; Plant response rating, Wheat [13, 19]: 0; Plant response rating, Wheat [13, 20]: 0; Plant response rating, Barnyardgrass [14]: 30

Question: What does the source list for `CC1(c2ccccc2)CNC(=O)C1C(=O)Nc1ccccc1F` (stereo not drawn) [Compound 301]?
Answer: Plant response rating, Ragweed [1, 15]: 0; Plant response rating, Ragweed [1, 16]: 0; Plant response rating, Ragweed [1, 17]: 0; Ragweed plant response rating [1, 21]: 0; Plant response rating, Galium [2, 19]: 0; Plant response rating, Galium [2, 20]: 0; Plant response rating, Foxtail, Giant [3, 15]: 0; Plant response rating, Foxtail, Giant [3, 16]: 0; Plant response rating, Foxtail, Giant [3, 17]: 0; Foxtail, Giant plant response rating [3, 21]: 0; Plant response rating, Pigweed [4, 15]: 0; Plant response rating, Pigweed [4, 16]: 0; Plant response rating, Pigweed [4, 17]: 0; Pigweed plant response rating [4, 21]: 0; Plant response rating, Blackgrass [5, 19]: 0; Plant response rating, Blackgrass [5, 20]: 0; Plant response rating, Rice [6]: 0; Plant response rating, Sedge, Umbrella [7]: 0; Plant response rating, Ducksalad [8]: 0; Plant response rating, Corn [9, 19]: 0; Plant response rating, Corn [9, 20]: 0; Plant response rating, Kochia [10, 15]: 0; Plant response rating, Kochia [10, 16]: 0; Plant response rating, Kochia [10, 17]: 0; Kochia plant response rating [10, 21]: 0; Plant response rating, Barnyardgrass [11, 15]: 0; Plant response rating, Barnyardgrass [11, 16]: 0; Plant response rating, Barnyardgrass [11, 17]: 0; Barnyardgrass plant response rating [11, 21]: 0; Plant response rating, Ryegrass, Italian [12, 15]: 0; Plant response rating, Ryegrass, Italian [12, 16]: 0; Plant response rating, Ryegrass, Italian [12, 17]: 0; Ryegrass, Italian plant response rating [12, 21]: 0; Plant response rating, Wheat [13, 19]: 0; Plant response rating, Wheat [13, 20]: 0; Plant response rating, Barnyardgrass [14]: 0
